From patent US6846826B2, “Phenoxypropanol connected with phenylpiperazine and phenoxyalkylamine terminal in its side chain” (priority 2001, dated 2005)

Experiments:
[1] = Heart rate and blood pressure in living rat (anaesthetized, i.v.); type: in vivo, Wistar rat; details: via femoral vein, dose not given (method: 0.5; 1.0; 3.0 mg/kg)
Text: Male Wistar rats, weighing 200˜300 g were abdominal anaesthetized with pentobarbital sodium. Tracheal was cannulated to maintain normal respiration. Polyethylene tube (inside diameter 0.58 mm, outside diameter 0.97 mm) was inserted into the left femoral vein to facilitate drug administration. A 3-way stopcock was used, with one end connected to a syringe for drug injection, while the other end was connected to the syringe filled with physiological saline. The latter was used to prevent residual drugs in the polyethylene tube after injection, which would affect experimental accuracy.
The right femoral artery was also inserted with polyethylene, and a 3-way stopcock was used tool, where one end was connected to heparin solution to prevent embolism. The other end was connected to a Disposable Diaphragm Dome, TA10019, and linked to a transducer. Through an amplifier, a recorder recorded the overall and average arterial pressure; heart rate to evaluate the effect of drug on blood pressure and heart rate. Different concentrations 0.5; 1.0; 3.0 mg/kg of compounds were given to the rats via femoral vein and the differences in the heart rate and blood pressure were compared. Furthermore in another group, test compounds of concentration 0.5; 1.0; 3.0 mg/kg were separately given to different rats via femoral vein, and the differences in the heart rate and blood pressure were compared.

Calcium = test: Isolated Wistar rat thoracic aorta, antagonism of CaCl2-induced contraction; details: vs CaCl2
Procedure: (§1) After sacrificing Wistar rat of weight between 200˜300 gm, the thoracic aorta was immediately removed and placed in cold Kreb's solution. The fatty connecting tissue surrounding the vessel wall was removed and the thoracic aorta was cut into rings of length 5 mm. The two ends of each ring was pieced and fixed with “Z” shaped platinum wires. Then the thoracic aorta was suspended in 10 ml of tissue bath, aerated with air mixture (95% O2+5% CO2) and maintained at 37° C., where one end was fixed at the bottom of tissue trough, the other end connected to force transducer to record the long contraction via recorder. The sample was given 1 gm of tension and equilibrated for 60 minutes before the following experiments were carried out.
After thoracic aorta had reached equilibrium in the tissue trough, cumulative administration of CaCl2 from […] caused the blood vessel contract to increase tension continuously, and a cumulative dose-response curve was obtained. Then the CaCl2 was thoroughly washed off with Kreb's solution to recover the aorta stability. After the equilibrum was reached again for at east 60 minutes, different concentrations as 10^−8, 10^−7, 10^−6 M of test compounds were added. 30 minutes later, cumulative administration of CaCl2 from 3×10^−5˜10^−2 M were carried out again, and another new cumulative dose-response curve was obtained. Cumulative administration interval was when the previous concentration reached its greatest effect, the next concentration would be immediately given. The time interval was approximately 3˜5 minutes, and the EC50 value could be obtained. From Schild plots, the pA2 of test compounds could be found. Calculation of pA2 value: similar to calculation method on isolated right atrium.

β1 [2] = target: T1, β1 (Rattus norvegicus, UniProt P18090); test: Isolated rat left atrium (electrically driven), antagonism of L-isoproterenol (Schild plot); details: for β1 pA2 value, Left atrium: vs L-isoproterenol, mean ± S.E. of six to eight
T1 construct: The right and left atria were then separated; from tissue; host or cells: isolated rat right atrium (spontaneously beating) and left atrium (electrically driven)
T1 sequence (P18090 whole entry): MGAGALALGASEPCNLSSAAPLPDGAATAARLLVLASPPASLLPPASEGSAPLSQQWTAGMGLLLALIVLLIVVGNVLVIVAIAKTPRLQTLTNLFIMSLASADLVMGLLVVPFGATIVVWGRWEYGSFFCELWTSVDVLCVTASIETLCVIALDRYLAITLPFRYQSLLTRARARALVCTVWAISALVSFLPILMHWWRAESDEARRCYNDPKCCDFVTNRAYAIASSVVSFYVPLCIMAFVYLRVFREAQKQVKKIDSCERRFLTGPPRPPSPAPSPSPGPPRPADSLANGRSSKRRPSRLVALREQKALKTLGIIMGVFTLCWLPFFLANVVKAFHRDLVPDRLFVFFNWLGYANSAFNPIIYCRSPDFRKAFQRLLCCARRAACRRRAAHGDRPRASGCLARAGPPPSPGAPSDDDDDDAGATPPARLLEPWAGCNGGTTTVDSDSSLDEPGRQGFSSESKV
Procedure: (§2) When the spontaneously beating rate of right atria reached a certain stability, cumulative administration of L-isoproterenol from 1×10^−[…] M caused the heart rate to increase continuously, and a cumulative dose-response curve was obtained. Then the L-isoproterenol was thoroughly washed off with Kreb's solution to recover the right atria's heart rate stability. After the equilibrum was reached again for at least 60 minutes, different concentrations (10^−7, 10^−6, 10^−5 M) of compounds were added. 30 minutes later, cumulative administration of L-isoproterenol from […] were carried out again, and another new cumulative dose-response curve was obtained. Administration of L-isoproterenol started from concentration 1×10^−10 M, and the concentration was raised 0.5 log each time for a total of six times. Cumulative administration interval was when the previous concentration reached its greatest effect, the next concentration would be immediately given. The time interval was approximately 3˜5 minutes, and the EC50 value could be obtained. From Schild plots, the pA2 of compounds could be found. In other groups of rats, after separate administration of test compounds, their pA2 values were obtained.
(§3) According to the method mentioned by Arunlakshana, O. et al.(Br. J. Pharmacol. Vol.14, pp. 48-57, 1959), which used the logarithm values of compound concentration testings as the x-coordinates, and the logarithm values of blocking agent of similar effect and […] as the y-coordinates, the data obtained were plotted into Figures and the slope of regression found. From x-coordinates of the line of regression, the intercept value was found, which is the pA2 value of the compound under testing. The equation is as follows: [formula] [formula] • [B]=Test compound concentration in moles • KB: equilibrium dissociation constant • n: value of slope • DR: test EC50 divided by control EC50 • CF: EC50 of second or third control groups divided by EC50 of first control group
The inspontaneously-beating left atrial tissue was obtained from rat's isolated right atrial tissue experiments. […] The contraction rate was 2 Hz and the resting tension 0.5 gm. After 60 minutes of equilibration, the following experiments were performed: • (a) Completion of cumulative concentration-response curve: similar to experimental method on isolated right atrium; • (b) Calculation of pA2 value: similar to calculation method on isolated right atrium.

α1 = test: Isolated Wistar rat thoracic aorta, antagonism of norepinephrine contraction (Schild plot); details: vs norepinephrine, mean ± S.E. of six to eight
Procedure: as §1
After thoracic aorta had reached equilibrium in the tissue trough, cumulative administration of norepinephrine from 10^−10˜3×10^−4 M caused the blood vessel contract to increase tension continuously, and a cumulative dose-response curve was obtained. Then the norepinephrine was thoroughly washed off with Kreb's solution to recover the aorta stability. After the equilibrum was reached again for at least 60 minutes, different concentrations as 10^−7, 10^−6, 10^−5 M of test compounds were added. 30 minutes later, cumulative administration of norepinephrine from […] were carried out again, and another new cumulative dose-response curve was obtained. Administration of norepinephrine started from concentration 1×10^−10 M, and the concentration was raised 0.5 log each time. Cumulative administration interval was when the previous concentration reached its greatest effect, the next concentration would be immediately given. The time interval was approximately 3˜5 minutes, and the EC50 value could be obtained. From Schild plots, the pA2 of test compounds could be found. Calculation of pA2 value: similar to calculation method on isolated right atrium.

β2 = target: T2, β2 (Cavia porcellus, UniProt Q8K4Z4); test: Isolated guinea pig trachea, antagonism of L-isoproterenol relaxation (Schild plot); details: for β2 pA2 value, Trachea: vs L-isoproterenol, mean ± S.E. of six to eight
T2 construct: a portion of tracheal approximately 4 cm long was removed; from tissue; host or cells: isolated guinea pig trachea (reserpinised animals)
T2 sequence (Q8K4Z4 whole entry): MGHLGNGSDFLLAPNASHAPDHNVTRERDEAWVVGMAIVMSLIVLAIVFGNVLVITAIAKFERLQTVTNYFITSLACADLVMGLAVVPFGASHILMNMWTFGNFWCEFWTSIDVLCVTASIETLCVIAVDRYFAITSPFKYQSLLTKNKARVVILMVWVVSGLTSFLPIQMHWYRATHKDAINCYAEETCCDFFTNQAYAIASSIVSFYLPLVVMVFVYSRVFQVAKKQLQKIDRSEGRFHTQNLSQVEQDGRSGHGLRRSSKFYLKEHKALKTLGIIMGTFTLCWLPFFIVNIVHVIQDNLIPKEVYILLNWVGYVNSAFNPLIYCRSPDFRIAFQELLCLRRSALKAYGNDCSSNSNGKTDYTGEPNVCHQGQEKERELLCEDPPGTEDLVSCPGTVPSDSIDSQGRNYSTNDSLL
Procedure: Guinea pigs of weight between 250˜350 gm were used.
After the guinea pigs were sacrificed, a slit was made along the neck, and a portion of tracheal approximately 4 cm long was removed. The tracheal was then placed in Kreb's solution aerated with a mixture of 95% O2 and 5% CO2 and maintained at room temperature about 22˜25° C. […] The two ends of the tracheal were clamped with frog-heart shaped clamps, one end was fixed at the bottom of tissue bath filled with 200 ml of Kreb's solution, maintained at 37° C., while the other end was connected to a force transducer. Through a COULBOURN AT-High-Speed Videograph, long isometric contractions were recorded. After the sample was given 1.5 gm of tension and equilibrated, the following experiments were performed:
Then the tracheal was repeatedly washed with Kreb's solution for 20 minutes and […] of carbochol was added to cause contraction in the guinea pig's tracheal. When the contraction reached the maximum, every division of tracheal was used to complete two concentration response curve of L-isoproternol, one of them without administration of test compound and used as control; while the other curve was administered with 10^−7, 10^−6 and 10^−5 M test compounds for 30 minutes before concentration response curve was completed. This is the test group.
Similar to the calculation method for isolated right atrium experiment.

β1 [3] = target: T1, β1; test: Isolated rat right atrium, antagonism of L-isoproterenol-induced rate increase (Schild plot); details: for β1 pA2 value, Right atrium: vs L-isoproterenol, mean ± S.E. of six to eight
Procedure: The entire heart of rat (weighing 200˜300 g) was removed immediately after the rat was sacrificed and the blood drained by incised carotid arteries, and placed in Kreb's solution equilibrated to a mixture of 95% O2 and 5% CO2 at room temperature (20˜25° C.). The right and left atria were then separated.
The spontaneously-beating right atria was clipped on both end by heart shaped clips, where one end was fixed at the bottom of 10 ml of tissue bath made of physiological saline solution, and temperature maintained at 37° C. The other end of the atria was connected to a force transducer, and isometric contractions and beating rate of the right atria were recorded by COULBOURN AT-High-Speed VideoFigure. After the samples were given 250 mg of contractions and reach equilibrium the following experiments were carried out:
as §2, §3

## COC(=O)C1=C(C)NC(C)=C(C(=O)OC)C1c1ccc(OCC(O)CNCCOc2ccccc2OC)cc1 (stereo not drawn) [Labedipinedilol-B]
[1]
  Decrease of blood pressure: 60 ± 15 mmHg
Calcium
  Calcium PKCa^−1 value, Aorta: 8.02 ± 0.04
β1 [2]
  β1 Slope of Schild plot, Left atrium: (0.83 ± 0.06)
  β1 pA2 value, Left atrium: 6.81 ± 0.08
α1
  α1 pA2 value, Aorta: 7.55 ± 0.05
β2
  β2 Slope of Schild plot, Trachea: (0.85 ± 0.03)
  β2 pA2 value, Trachea: 6.48 ± 0.07
β1 [3]
  β1 Slope of Schild plot, Right atrium: (0.97 ± 0.10)
  β1 pA2 value, Right atrium: 6.61 ± 0.11

## COC(=O)C1=C(C)NC(C)=C(C(=O)OC)C1c1ccc(OCC(O)CN2CCN(c3ccccc3Cl)CC2)c(OC)c1 (stereo not drawn) [Labedipinedilol-C]
[1]
  Decrease of blood pressure: 50 ± 17 mmHg
Calcium
  Calcium PKCa^−1 value, Aorta: 8.12 ± 0.04
β1 [2]
  β1 Slope of Schild plot, Left atrium: (0.99 ± 0.03)
  β1 pA2 value, Left atrium: 7.23 ± 0.07
α1
  α1 pA2 value, Aorta: 6.87 ± 0.08
β2
  β2 Slope of Schild plot, Trachea: (0.92 ± 0.02)
  β2 pA2 value, Trachea: 5.54 ± 0.16
β1 [3]
  β1 Slope of Schild plot, Right atrium: (1.02 ± 0.04)
  β1 pA2 value, Right atrium: 7.01 ± 0.09

## COC(=O)C1=C(C)NC(C)=C(C(=O)OC)C1c1ccc(OCC(O)CNCCOc2ccccc2C)c(OC)c1 (stereo not drawn) [Labedipinedilol-D]
[1]
  Decrease of blood pressure: 55 ± 9 mmHg
Calcium
  Calcium PKCa^−1 value, Aorta: 8.23 ± 0.06
β1 [2]
  β1 Slope of Schild plot, Left atrium: (1.12 ± 0.04)
  β1 pA2 value, Left atrium: 6.31 ± 0.12
α1
  α1 pA2 value, Aorta: 7.23 ± 0.05
β2
  β2 Slope of Schild plot, Trachea: (1.10 ± 0.06)
  β2 pA2 value, Trachea: 5.70 ± 0.06
β1 [3]
  β1 Slope of Schild plot, Right atrium: (0.84 ± 0.03)
  β1 pA2 value, Right atrium: 7.23 ± 0.03

## COC(=O)C1=C(C)NC(C)=C(C(=O)OC)C1c1ccc(OCC(O)CNCCOc2ccccc2Cl)c(OC)c1 (stereo not drawn) [Labedipinedilol-E]
[1]
  Decrease of blood pressure: 58 ± 7 mmHg
Calcium
  Calcium PKCa^−1 value, Aorta: 8.08 ± 0.04
β1 [2]
  β1 Slope of Schild plot, Left atrium: (1.07 ± 0.05)
  β1 pA2 value, Left atrium: 6.15 ± 0.09
α1
  α1 pA2 value, Aorta: 8.46 ± 0.05
β2
  β2 Slope of Schild plot, Trachea: (0.65 ± 0.03)
  β2 pA2 value, Trachea: 5.07 ± 0.12
β1 [3]
  β1 Slope of Schild plot, Right atrium: (1.12 ± 0.06)
  β1 pA2 value, Right atrium: 6.24 ± 0.06
